Source: patent US8658646B2, “Pyrrolopyrazine kinase inhibitors” (Hoffmann-LaRoche Inc., priority 2011, dated 2014)

These molecules were tested against T1, JAK3: Recombinant human kinase domain (Homo sapiens, UniProt P52333) (assay: Determination of IC50 of Janus Kinase (JAK) inhibition, radioactive end-point 33P-ATP assay, JAK3). Conditions: ATP 1.5 uM, peptide 50 uM, 20 minutes, read-out: JAK3-INHIB-DR/v1~NO ADDITIVE~Enzyme_Conc = 100.
T1 construct: JAK3: Recombinant human kinase domain from Millipore (Cat #14-629) or prepared; purchased Millipore 14-629
Type: biochemical

T1 sequence (P52333 822-1111 limits assumed): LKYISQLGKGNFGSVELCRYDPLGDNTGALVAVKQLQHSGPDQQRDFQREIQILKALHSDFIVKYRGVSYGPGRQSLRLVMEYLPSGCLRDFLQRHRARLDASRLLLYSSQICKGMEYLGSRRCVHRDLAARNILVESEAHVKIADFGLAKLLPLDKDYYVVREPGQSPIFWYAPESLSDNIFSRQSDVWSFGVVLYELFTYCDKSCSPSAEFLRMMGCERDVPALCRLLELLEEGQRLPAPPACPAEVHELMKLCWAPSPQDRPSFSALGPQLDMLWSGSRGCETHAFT

Row | IC50 [nM] | SMILES
1 | 1.57 | C[C@@H](NC(=O)c1c[nH]c2ncc(-c3nn(C)c4cc(F)cc(F)c34)nc12)C(=O)N1CC(C#N)C1 [Example I-88, 2-(4,6-Difluoro-1-methyl-1H-indazol-3-yl)-5H-pyrrolo[2,3-b]pyrazine-7-carboxylic acid [(R)-2-(3-cyano-azetidin-1-yl)-1-methyl-2-oxo-ethyl]-amide]
2 | 5.45 | C[C@@H](NC(=O)c1c[nH]c2ncc(-c3nn(C)c4cc(Cl)ccc34)nc12)[C@H]1C[C@H]1C#N (single isomer, unassigned) [Example I-207]
3 | 9.35 | CC(NC(=O)c1c[nH]c2ncc(-c3nn(C)c4cc(F)ccc34)nc12)[C@H]1C[C@H](C#N)C1 (stereo partly drawn) [Example I-74, 2-(6-Fluoro-1-methyl-1H-indazol-3-yl)-5H-pyrrolo[2,3-b]pyrazine-7-carboxylic acid [1-(trans-3-cyano-cyclobutyl)-ethyl]-amide]
4 | 1.23 | C[C@@H](NC(=O)c1c[nH]c2ncc(-c3nn(C)c4cc(Cl)c(Cl)cc34)nc12)C(=O)N1CC(C#N)C1 [Example I-6, 2-(5,6-Dichloro-1-methyl-1H-indazol-3-yl)-5H-pyrrolo[2,3-b]pyrazine-7-carboxylic acid [(R)-2-(3-cyano-azetidin-1-yl)-1-methyl-2-oxo-ethyl]-amide]
5 | 176 | C[C@@H](C#N)CNC(=O)c1c[nH]c2ncc(-c3nn(C)c4cc(F)ccc34)nc12 [Example I-136, 2-(6-Fluoro-1-methyl-1H-indazol-3-yl)-5H-pyrrolo[2,3-b]pyrazine-7-carboxylic acid ((R)-2-cyano-2-methyl-ethyl)-amide]
6 | 3.64 | C[C@@H](NC(=O)c1c[nH]c2ncc(-c3nn(C)c4cc(Cl)ccc34)nc12)C(=O)N1CC[C@@H](F)C1 [Example I-119, 2-(6-Chloro-1-methyl-1H-indazol-3-yl)-5H-pyrrolo[2,3-b]pyrazine-7-carboxylic acid [(R)-2-((R)-3-fluoro-pyrrolidin-1-yl)-methyl-2-oxo-ethyl]-amide]
7 | 1.36 | Cc1ccc2c(-c3cnc4[nH]cc(C(=O)N[C@H](C)C(=O)N5CC(C#N)C5)c4n3)nn(C)c2c1 [Example I-82]
8 | 1.09 | COC[C@@H](NC(=O)c1c[nH]c2ncc(-c3nn(C)c4cc(Cl)ccc34)nc12)C(=O)N1CC(F)C1 [Example I-174, 2-(6-Chloro-1-methyl-1H-indazol-3-yl)-5H-pyrrolo[2,3-b]pyrazine-7-carboxylic acid [(R)-2-(3-fluoro-azetidin-1-yl)-1-methoxymethyl-2-oxo-ethyl]-amide]
9 | 136 | CC(COc1ccccc1)NC(=O)c1c[nH]c2ncc(-c3nn(C)c4cc(F)ccc34)nc12 (stereo not drawn) [Example I-202, 2-(6-Fluoro-1-methyl-1H-indazol-3-yl)-5H-pyrrolo[2,3-b]pyrazine-7-carboxylic acid (1-methyl-2-phenoxy-ethyl)-amide]
10 | 3.04 | C[C@@H](COCC#N)NC(=O)c1c[nH]c2ncc(-c3nn(C)c4cc(F)ccc34)nc12 [Example I-219, 2-(6-Fluoro-1-methyl-1H-indazol-3-yl)-5H-pyrrolo[2,3-b]pyrazine-7-carboxylic acid ((S)-2-cyanomethoxy-1-methyl-ethyl)-amide]
11 | 27.5 | C[C@@H](NC(=O)c1c[nH]c2ncc(-c3nn(C)c4cc(Cl)ccc34)nc12)C(=O)N1CC(F)(F)C1 [Example I-14, 2-(6-Chloro-1-methyl-1H-indazol-3-yl)-5H-pyrrolo[2,3-b]pyrazine-7-carboxylic acid [(R)-2-(3,3-difluoro-azetidin-1-yl)-1-methyl-2-oxo-ethyl]-amide]
12 | 2.83 | Cn1nc(-c2cnc3[nH]cc(C(=O)N[C@@H](C(=O)N4CCC(C#N)CC4)C(C)(C)C)c3n2)c2cc(Cl)ccc21 [Example I-8, 2-(5-Chloro-1-methyl-1H-indazol-3-yl)-5H-pyrrolo[2,3-b]pyrazine-7-carboxylic acid [(R)-1-(4-cyano-piperidine-1-carbonyl)-2,2-dimethyl-propyl]-amide]
13 | 84.6 | C[C@@H](NC(=O)c1c[nH]c2ncc(-c3nn(C)c4cc(Cl)ccc34)nc12)C(=O)N1CCOCC1 [Example I-28, 2-(6-Chloro-1-methyl-1H-indazol-3-yl)-5H-pyrrolo[2,3-b]pyrazine-7-carboxylic acid ((R)-1-methyl-2-morpholin-4-yl-2-oxo-ethyl)-amide]
14 | 444 | Cn1nc(-c2cnc3[nH]cc(C(=O)NC(C)(C)C)c3n2)c2ccc(Cl)cc21 [Example I-305, 2-(6-Chloro-1-methyl-1H-indazol-3-yl)-5H-pyrrolo[2,3-b]pyrazine-7-carboxylic acid tert-butylamide]
15 | 54.5 | C[C@H](CO)NC(=O)c1c[nH]c2ncc(-c3nn(C)c4cc(Cl)ccc34)nc12 [Example I-200, 2-(6-Chloro-1-methyl-1H-indazol-3-yl)-5H-pyrrolo[2,3-b]pyrazine-7-carboxylic acid ((R)-2-hydroxy-1-methyl-ethyl)-amide]
16 | 2.34 | COCCn1nc(-c2cnc3[nH]cc(C(=O)N[C@H](C)C(=O)N4CC(C#N)C4)c3n2)c2ccc(Cl)cc21 [Example I-24, 2-[6-Chloro-1-(2-methoxy-ethyl)-1H-indazol-3-yl]-5H-pyrrolo[2,3-b]pyrazine-7-carboxylic acid [(R)-2-(3-cyano-azetidin-1-yl)-1-methyl-2-oxo-ethyl]-amide]
17 | 1.06 | Cn1nc(-c2cnc3[nH]cc(C(=O)N[C@@H](C(=O)N4CCC(C#N)CC4)C4CC4)c3n2)c2cc(Cl)ccc21 [Example I-3, 2-(5-Chloro-1-methyl-1H-indazol-3-yl)-5H-pyrrolo[2,3-b]pyrazine-7-carboxylic acid [(R)-2-(4-cyano-piperidin-1-yl)-1-cyclopropyl-2-oxo-ethyl]-amide]
18 | 285 | C[C@H](CC(=O)N1CCCC1)NC(=O)c1c[nH]c2ncc(-c3nn(C)c4cc(Cl)ccc34)nc12 [Example I-72, 2-(6-Chloro-1-methyl-1H-indazol-3-yl)-5H-pyrrolo[2,3-b]pyrazine-7-carboxylic acid ((R)-1-methyl-3-oxo-3-pyrrolidin-1-yl-propyl)-amide]
19 | 5.78 | CCOC[C@H](C)NC(=O)c1c[nH]c2ncc(-c3nn(C)c4cc(Cl)ccc34)nc12 [Example I-171, 2-(6-Chloro-1-methyl-1H-indazol-3-yl)-5H-pyrrolo[2,3-b]pyrazine-7-carboxylic acid ((S)-2-ethoxy-1-methyl-ethyl)-amide]
20 | 15.1 | C[C@@H](NC(=O)c1c[nH]c2ncc(-c3nn(C)c4cc(F)ccc34)nc12)c1cc(C(F)(F)F)ccn1 [Example I-79, 2-(6-Fluoro-1-methyl-1H-indazol-3-yl)-5H-pyrrolo[2,3-b]pyrazine-7-carboxylic acid [(R)-1-(4-trifluoromethyl-pyridin-2-yl)-ethyl]-amide]
21 | 3.77 | C[C@H](NC(=O)c1c[nH]c2ncc(-c3nn(C)c4cc(Cl)cc(F)c34)nc12)C1CC1 [Example I-141, 2-(6-Chloro-4-fluoro-1-methyl-1H-indazol-3-yl)-5H-pyrrolo[2,3-b]pyrazine-7-carboxylic acid ((S)-1-cyclopropyl-ethyl)-amide]
22 | 3.19 | CCC[C@@H](NC(=O)c1c[nH]c2ncc(-c3nn(C)c4cc(F)ccc34)nc12)C(=O)N1CC(F)C1 [Example I-59, 2-(6-Fluoro-1-methyl-1H-indazol-3-yl)-5H-pyrrolo[2,3-b]pyrazine-7-carboxylic acid [(R)-1-(3-fluoro-azetidine-1-carbonyl)-butyl]-amide]
23 | 4.01 | Cn1nc(-c2cnc3[nH]cc(C(=O)N[C@@H](C(=O)N4CCC(C#N)CC4)C4CC4)c3n2)c2ccc(C3CC3)cc21 [Example I-9, 2-(6-Cyclopropyl-1-methyl-1H-indazol-3-yl)-5H-pyrrolo[2,3-b]pyrazine-7-carboxylic acid [(R)-2-(4-cyano-piperidin-1-yl)-1-cyclopropyl-2-oxo-ethyl]-amide]
24 | 7.05 | CC(C)NC(=O)c1c[nH]c2ncc(-c3nn(C)c4cc(Cl)ccc34)nc12 [Example I-108, 2-(6-Chloro-1-methyl-1H-indazol-3-yl)-5H-pyrrolo[2,3-b]pyrazine-7-carboxylic acid isopropylamide]
25 | 12.6 | C[C@@H](NC(=O)c1c[nH]c2ncc(-c3nn(CC(O)CO)c4cc(Cl)ccc34)nc12)C(=O)N1CC(C#N)C1 (stereo partly drawn) [Example I-94, 2-[6-Chloro-1-(2,3-dihydroxy-propyl)-1H-indazol-3-yl]-5H-pyrrolo[2,3-b]pyrazine-7-carboxylic acid [(R)-2-(3-cyano-azetidin-1-yl)-1-methyl-2-oxo-ethyl)-amide]
26 | 13.3 | C[C@@H](NC(=O)c1c[nH]c2ncc(-c3nn(C)c4cc(F)ccc34)nc12)[C@H]1CCCO1 [Example I-64, 2-(6-Fluoro-1-methyl-1H-indazol-3-yl)-5H-pyrrolo[2,3-b]pyrazine-7-carboxylic acid [(R)-(R)-1-(tetrahydro-furan-2-yl)-ethyl]-amide]
27 | 27.3 | C[C@@H](NC(=O)c1c[nH]c2ncc(-c3nn(C)c4cc(F)ccc34)nc12)c1cccc(Br)c1 [Example I-215, 2-(6-Fluoro-1-methyl-1H-indazol-3-yl)-5H-pyrrolo[2,3-b]pyrazine-7-carboxylic acid [(R)-1-(3-bromo-phenyl)-ethyl]-amide]
28 | 1.72 | Cn1nc(-c2cnc3[nH]cc(C(=O)N[C@@H](C(=O)N4CCC(C#N)CC4)C4CC4)c3n2)c2ccccc21 [Example I-1]
29 | 0.33 | C[C@@H](NC(=O)c1c[nH]c2ncc(-c3nc(CO)n4cc(F)ccc34)nc12)C(=O)N1CC(C#N)C1 [Example I-35, 2-(6-Fluoro-3-hydroxymethyl-imidazo[1,5-a]pyridin-1-yl)-5H-pyrrolo[2,3-b]pyradine-7-carboxylic acid [(R)-2-(3-cyano-azetidin-1-yl)-1-methyl-2-oxo-ethyl]-amide]
30 | 7.07 | CC(NC(=O)c1c[nH]c2ncc(-c3nn(C)c4cc(F)ccc34)nc12)c1ccon1 (stereo not drawn) [Example I-53, 2-(6-Fluoro-1-methyl-1H-indazol-3-yl)-5H-pyrrolo[2,3-b]pyrazine-7-carboxylic acid (1-isoxazol-3-yl-ethyl)-amide]
